The source made the active and inactive calls. The rule behind the calls is not given here.
What was measured:
Mus musculus [1] = experiment: Anxiolytic activity in BALB/c mouse at 7.7 mg/kg, po after 5 mins in presence of 1 mg/kg ketanserin by cylinder exploratory test; assay type: functional, organism-based
[2] = Effect on locomotor activity in BALB/c mouse assessed as reduction in time spent in rotarod at <25 mg/kg, po by rotarod test; assay type: ADME, organism-based; conditions: in vivo
Mus musculus [3] = experiment: Anxiolytic activity in BALB/c mouse at 25 mg/kg, po administered 1 hr prior to experiment by cylinder exploratory test relative to control; assay type: functional
Mus musculus [4] = experiment: Anxiolytic activity in BALB/c mouse assessed as reduction in anxiety like behaviour administered orally 1 hr prior to experiment by cylinder exploratory test; assay type: functional; conditions: for ED50: po
[5] = Effect on locomotor activity in BALB/c mouse assessed as reduction in time spent in rotarod at 100 mg/kg, po measured after 1 hr post treatment by rotarod test; assay type: ADME, organism-based; conditions: in vivo
Mus musculus [6] = experiment: Anxiolytic activity in BALB/c mouse at 7.7 mg/kg, po after 5 mins in presence of GABAA receptor antagonist 0.7 mg/kg bicuculline by cylinder exploratory test; assay type: functional, organism-based
Mus musculus [7] = experiment: Anxiolytic activity in BALB/c mouse at 7.7 mg/kg, po after 5 mins in presence of 1 mg/kg yohimbine by cylinder exploratory test; assay type: functional, organism-based
Mus musculus [8] = experiment: Anxiolytic activity in BALB/c mouse at 3.3 mg/kg, po after 5 mins in presence of GABAA receptor antagonist 0.7 mg/kg bicuculline by cylinder exploratory test; assay type: functional, organism-based
Mus musculus [9] = experiment: Anxiolytic activity in BALB/c mouse at 3.3 mg/kg, po after 5 mins in presence of 1 mg/kg yohimbine by cylinder exploratory test; assay type: functional, organism-based
Mus musculus [10] = experiment: Anxiolytic activity in BALB/c mouse at 3.3 mg/kg, po after 5 mins in presence of 1 mg/kg ketanserin by cylinder exploratory test; assay type: functional, organism-based

Compound | Activity (Mus musculus [1]) | Activity [2] | Activity (Mus musculus [3]) [%] | Activity (Mus musculus [4]) | ED50 (Mus musculus [4]) [mg/kg] | Activity [5] | Activity (Mus musculus [6]) | Activity (Mus musculus [7]) | Activity (Mus musculus [8]) | Activity (Mus musculus [9]) | Activity (Mus musculus [10])
CCOC(=O)[C@]1(C#N)[C@@H](c2ccccc2)Cc2c(c3ccccc3n2Cc2ccccc2)[C@@H]1CC=O | Active | Non-Toxic | 83.4 | Dose-dependent effect | 7.7 | Toxic | inactive | Active |  |  | 
CCOC(=O)[C@]1(C#N)[C@@H](c2ccccc2)Cc2c(c3ccccc3n2C(=O)OC(C)(C)C)[C@@H]1CC=O |  | Non-Toxic | 72 | Dose-dependent effect | 3.3 |  |  |  | inactive | Active | Active
